Source: the supplement of paper PMC10307832

How the values were obtained:
Assay in all cases: relative viability (nuclei count vs DMSO), 5 days (fraction); higher = more cells survive
[1] = compound: COc1cc2nccc(Oc3ccc(NC(=O)C4(C(=O)Nc5ccc(F)cc5)CC4)cc3)c2cc1OC [Cabozantinib] + NC(=O)Nc1cc(-c2cccc(F)c2)sc1C(=O)N[C@H]1CCCNC1 [AZD7762] (partner 0.2 µM)
Summary of the method: (§1)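 Lung cancer cell lines were pin-tool dosed in 1536-well plates on the day after seeding, with either a lone drug or a fixed anchor-drug dose plus five library-drug doses (not always all listed) in √10 steps. Nuclei were counted on 4× images after 5 days. Relative viability is the ratio of treated-well to vehicle-well nuclei counts, with each value a median of duplicate plates.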

[2] = compound: COc1cc2nccc(Oc3ccc(NC(=O)C4(C(=O)Nc5ccc(F)cc5)CC4)cc3)c2cc1OC [Cabozantinib] + CCNC(=O)c1noc(-c2cc(C(C)C)c(O)cc2O)c1-c1ccc(CN2CCOCC2)cc1 [Luminespib] (partner 0.01 µM)
Summary of the method: as §1

[3] = compound: C1=CC(=CC=C1NC(=S)NNC2=C(C=C(C=C2[N+](=O)[O-])C(F)(F)F)[N+](=O)[O-])F [Kobe2602] + Nc1nc2[nH]cc(CCc3ccc(C(=O)N[C@@H](CCC(=O)O)C(=O)O)cc3)c2c(=O)[nH]1 [Pemetrexed] (partner 0.2 µM)
Summary of the method: as §1

[4] = compound: C1=CC(=CC=C1NC(=S)NNC2=C(C=C(C=C2[N+](=O)[O-])C(F)(F)F)[N+](=O)[O-])F [Kobe2602] + CC(=O)Nc1cccc(-n2c(=O)n(C3CC3)c(=O)c3c(Nc4ccc(I)cc4F)n(C)c(=O)c(C)c32)c1 [Trametinib] (partner 0.02 µM)
Summary of the method: as §1

| Cell Line | relative viability ([1]; first compound 0.02 µM) | relative viability ([1]; first compound 0.06325 µM) | relative viability ([1]; first compound 0.2 µM) | relative viability ([1]; first compound 0.6325 µM) | relative viability ([1]; first compound 2 µM) | relative viability ([2]; first compound 0.02 µM) | relative viability ([2]; first compound 0.06325 µM) | relative viability ([2]; first compound 0.2 µM) | relative viability ([2]; first compound 0.6325 µM) | relative viability ([2]; first compound 2 µM) | relative viability ([3]; first compound 0.2 µM) | relative viability ([3]; first compound 0.6325 µM) | relative viability ([3]; first compound 2 µM) | relative viability ([3]; first compound 6.325 µM) | relative viability ([3]; first compound 20 µM) | relative viability ([4]; first compound 0.2 µM) | relative viability ([4]; first compound 0.6325 µM) | relative viability ([4]; first compound 2 µM) | relative viability ([4]; first compound 6.325 µM) | relative viability ([4]; first compound 20 µM) |
| --- | --- | --- | --- | --- | --- | --- | --- | --- | --- | --- | --- | --- | --- | --- | --- | --- | --- | --- | --- | --- |
| SW 900 | 0.604 | 0.761 | 0.559 | 0.441 | 0.448 | 0.17 | 0.19 | 0.2 | 0.177 | 0.166 | 0.472 | 0.489 | 0.479 | 0.487 | 0.493 | 0.959 | 0.745 | 0.807 | 0.677 | 0.548 |
| NCI-H358 | 0.457 | 0.715 | 0.499 | 0.544 | 0.62 | – | 0.549 | – | 0.322 | 0.136 | 0.196 | 0.208 | 0.17 | 0.166 | 0.178 | 0.138 | 0.15 | 0.135 | 0.16 | 0.141 |
| HCC-366 | 0.34 | 0.358 | 0.21 | 0.209 | 0.275 | – | – | – | – | – | 0.157 | 0.179 | 0.16 | 0.146 | 0.328 | 0.284 | 0.386 | 0.31 | 0.297 | 0.302 |
| NCI-H520 | – | – | – | – | – | 0.257 | 0.198 | 0.249 | 0.237 | 0.189 | 0.709 | 0.675 | 0.559 | 0.724 | 0.772 | 0.682 | 0.642 | 0.744 | 0.644 | 0.788 |
| SW 1573 | – | – | – | – | – | 0.22 | 0.223 | 0.221 | 0.151 | 0.122 | 0.786 | 0.96 | 0.82 | 0.84 | 0.598 | 0.67 | 0.677 | 0.46 | 0.458 | 0.155 |
| COR-L 105 | – | – | – | – | – | 0.924 | 0.823 | – | 0.915 | 0.609 | 1.01 | 1.27 | 0.923 | 1.15 | 1.16 | 0.378 | 0.49 | 0.417 | 0.395 | 0.402 |
| NCI-H2228 | – | – | – | – | – | 0.162 | 0.167 | 0.175 | 0.122 | 0.134 | 0.369 | 0.356 | 0.339 | 0.344 | 0.35 | 0.645 | 0.612 | 0.41 | 0.461 | 0.742 |
| NCI-H1623 | – | – | – | – | – | 0.53 | 0.497 | 0.47 | 0.446 | 0.492 | – | – | – | – | – | – | – | – | – | – |
| NCI-H1650 | – | – | – | – | – | 0.187 | 0.202 | 0.185 | 0.185 | 0.169 | 0.394 | 0.355 | 0.363 | 0.335 | 0.374 | 0.724 | 0.525 | 0.59 | 0.536 | 0.586 |
| NCI-H661 | – | – | – | – | – | 0.904 | 0.929 | 1.01 | 0.957 | 0.938 | 0.893 | 0.947 | 0.913 | 0.932 | 0.924 | 0.554 | 0.594 | 0.594 | 0.622 | 0.522 |
| COR-L23 | – | – | – | – | – | 0.733 | 0.823 | 0.723 | 0.675 | 0.658 | 0.209 | 0.2 | 0.212 | 0.204 | 0.204 | 0.569 | 0.587 | 0.575 | 0.549 | 0.679 |
| NCI-H727 | 0.509 | 0.796 | 0.661 | 0.539 | 0.651 | 0.285 | 0.453 | 0.643 | 0.362 | 0.312 | – | – | – | – | – | 0.417 | 0.408 | 0.355 | – | 0.371 |
| NCI-H2009 | – | – | – | – | – | 1.13 | 1.1 | 1 | 1.1 | 1.14 | 1.02 | 1.03 | 1.09 | 1.02 | 0.979 | 0.297 | 0.373 | 0.332 | 0.305 | 0.274 |
| HCC-78 | – | 0.699 | 0.466 | 0.46 | 0.39 | – | – | – | – | – | 0.891 | 0.923 | 0.699 | 0.868 | 0.844 | 0.708 | 0.891 | 0.633 | 0.768 | 0.8 |
| NCI-H1648 | 0.792 | 0.737 | – | 0.721 | 0.73 | – | – | – | – | – | 0.759 | 0.684 | 0.519 | 0.693 | 0.809 | 0.474 | 0.488 | 0.465 | 0.457 | 0.408 |
| NCI-H1703 | 0.118 | 0.129 | 0.133 | 0.136 | 0.139 | – | – | – | – | – | – | – | – | – | – | – | – | – | – | – |
| NCI-H2023 | – | – | – | – | – | 0.839 | 0.68 | 0.635 | 0.641 | 0.539 | 0.218 | 0.255 | 0.194 | 0.211 | 0.0788 | 0.469 | 0.608 | 0.592 | 0.444 | 0.201 |
| NCI-H1563 | – | – | – | – | – | 0.507 | 0.52 | 0.508 | 0.527 | 0.531 | 0.846 | 0.717 | 0.611 | 0.786 | 0.847 | – | – | – | – | – |
| ABC-1 | 0.678 | 0.843 | 0.733 | 0.844 | 0.632 | 0.458 | 0.494 | 0.83 | 1.11 | 0.758 | – | – | – | – | – | – | – | – | – | – |
| SK-MES-1 | – | – | – | – | – | 0.835 | 1 | 0.9 | 0.875 | 0.729 | 0.917 | 0.946 | 0.934 | 0.868 | 0.534 | 0.579 | 0.534 | 0.554 | 0.589 | 0.496 |
| SK-LU-1 | – | – | – | – | – | 0.225 | 0.209 | 0.207 | 0.192 | 0.21 | 0.969 | 0.978 | 1.02 | 0.963 | 0.953 | 0.519 | 0.506 | 0.469 | 0.439 | 0.58 |
